# Reference: patent publication US11406664B2, “Ferric maltol compositions for use in the treatment or prevention of cancer and tumours” (Shield TX (UK) Limited, priority 2016, dated 2022)
# How the values were obtained:
# [1] = patients with inflammatory bowel disease; cited from earlier work
# [2] = system: Hutu 80 human epithelial duodenum adenocarcinoma cell line; assay: Proliferation assay by real time live cell imaging (Incucyte), Hutu 80; format: cell-based; conditions: for effect on cell proliferation: iron compounds, 5 or 10% FBS, at concentrations predicted in gut lumen with iron supplementation; for effect on cell proliferation / effect on cancer cell proliferation, ligand not bound to iron: 72 h; for effect on cancer cell proliferation, ligand not bound to iron: ligand-only control
# Protocol: (§1) FIG. 2: Inhibition of cell proliferation in the Hutu 80 human epithelial duodenum adenocarcinoma cell line with different iron compounds as assessed by real time live cell imaging (Incucyte™) Cells were treated for 72 h with the indicated iron compounds in complete growth media containing 5% FBS (A) or 10% FBS (B), the corresponding ‘ligand-only’ controls are shown in panels C and D. Normalised cell proliferation corresponds to the area under the proliferation curve for cells grown in media supplemented with each compound divided by the area under the curve for cells grown in media alone (i.e. without any of the supplemented compounds). Data are presented as mean with SEM (n=2 independent experiments with 3 replicates for each experiment).
# (§2) A stock solution of ferric citrate (FeCitrate) 8 mM [Fe] was produced by adding citric acid to ferric chloride on a 1:1 molar ratio. Ferric trimaltol (FTMB) was produced from iron hydroxides and maltol, and the stock solution of circa 8 mM [Fe] was produced by dissolving it in ultrapure water. All stock solutions were filter sterilised (0.2 μm).
# (§3) Three different epithelial cancer cell lines were used: colorectal adenocarcinoma [Caco2 (ATCC) and HT29(ECAAC)] and duodenum adenocarcinoma [Hutu 80 (ATCC)]. The cells were grown in an incubator at 37° C. and an atmosphere of 5% CO2 and 95% air at a relative humidity of approximately 95%. The cancer cells were grown in Gibco® MEM supplemented with 5 or 10% foetal bovine serum (FBS) as stated, 1% penicillin/streptomycin (10.000 Units/ml Penicillin, 10.000 μg/ml Streptomycin) and 1% fungizone (Amphotericin B, 250 μg/ml).
# (§4) Working solutions of 2 mM [Fe] for each iron compound were prepared fresh on the day of the experiment by diluting the stock solutions of the different iron materials in complete cell growth medium and these 2 mM solutions were used in the serial dilutions to achieve the 8 different concentrations for the proliferation assay (0.89, 0.49, 0.27, 0.15, 0.08, 0.05, 0.026, 0.015) in 96-well ImageLock cell culture plates. A control condition containing only complete growth medium without any iron compound added was also tested. The cells were seeded at a density of 10,000-20,000 cells/well. The plates were incubated in a Live Content Imaging Incubator (Incucyte ZOOM, Essen BioScience Ltd., UK) and images and confluence data were acquired every 3 hours for 72 hours post-seeding. Within each experiment each iron concentration was tested in triplicate wells.
# (§5) The plot of confluence (%) vs time (h) was obtained for each iron compound and concentration. The area under the curve (AUC) was calculated and plotted against the concentration for each test compound or the control. The AUC for each iron compound was normalised against that of the control (i.e. complete growth medium alone).
# [3] = system: Caco2 human epithelial colorectal adenocarcinoma cell line; assay: Proliferation assay by real time live cell imaging (Incucyte), Caco2; format: cell-based; conditions: for effect on cell proliferation: iron compounds, 5 or 10% FBS, at concentrations predicted in gut lumen with iron supplementation
# Protocol: as §1, with “1. […]” for “2: Inhibition of cell proliferation in the Hutu 80 human epithelial duodenum adenocarcinoma cell line with different iron compounds as assessed by real time live cell imaging (Incucyte™)”, “(n=3” for “(n=2”
# as §2, §3, §4, §5
# [4] = system: HT29 human epithelial colorectal adenocarcinoma cell line; assay: Proliferation assay by real time live cell imaging (Incucyte), HT29; format: cell-based; conditions: for effect on cell proliferation: iron compounds, 5 or 10% FBS, at concentrations predicted in gut lumen with iron supplementation; for effect on cell proliferation / effect on cancer cell proliferation, ligand not bound to iron: 72 h; for effect on cancer cell proliferation, ligand not bound to iron: ligand-only control
# Protocol: FIG. 3: Inhibition of cell proliferation in the HT29 human epithelial colorectal adenocarcinoma cell line with the different iron compounds as assessed by real time live cell imaging (Incucyte™). Conditions were as above in the legend to FIG. 2.
# as §2, §3, §4, §5
# intestinal cancer = conditions: animal models; cited from earlier work
# [5] = review of real time-recorded cell images, concentration as iron
Compound,effect on cell proliferation [2],effect on cell proliferation ([3]; 72 h),effect on cell proliferation [4],"effect on cancer cell proliferation, ligand not bound to iron [2]","effect on cancer cell proliferation, ligand not bound to iron [4]",effect on intestinal cancer (intestinal cancer),other results
Cc1occc(=O)c1[O-].Cc1occc(=O)c1[O-].Cc1occc(=O)c1[O-].[Fe+3] [ferric trimaltol],inhibited cancer cell proliferation,inhibited cancer cell proliferation,inhibited cancer cell proliferation,–,–,–,"correction of iron deficiency anaemia [1]: effectively delivers iron to correct iron deficiency anaemia; iron concentration at which cells were non-proliferative [2, 5]: 400 µM; iron concentration at which cells were poorly proliferating [2, 5]: 150 µM; iron concentration at which cells were non-proliferative [3, 5]: 80 µM; iron concentration at which cells were poorly proliferating [3, 5]: 50 µM; iron concentration at which cells were non-proliferative [4, 5]: 80 µM; iron concentration at which cells were poorly proliferating [4, 5]: 50 µM"
"O.O.O.O.O.O.O.O=S(=O)([O-])[O-].[Fe+2] [ferrous sulphate, Ferrous sulphate heptahydrate]",promoted proliferation,–,promoted proliferation,–,–,–,–
"Cc1occc(=O)c1O [maltol, 3-Hydroxy-2-methyl-4H-pyran-4-one]",–,–,–,moderate inhibition,moderate inhibition,–,"effect on cancer cell proliferation, ligand not bound to iron ([3]; ligand-only control, 72 h): moderate inhibition"
O=C(O)CN(CCN(CC(=O)O)CC(=O)O)CC(=O)O [EDTA],–,–,–,moderate inhibition,moderate inhibition,–,–
"O=C([O-])CN(CCN(CC(=O)[O-])CC(=O)[O-])CC(=O)[O-].[Fe+3].[Na+] [ferric EDTA, ferric EDTA sodium salt]",promoted proliferation,–,promoted proliferation,–,–,enhance intestinal cancer,–
ferric citrate,promoted proliferation,promoted proliferation,promoted proliferation,–,–,enhance intestinal cancer,–
